# Values joined by “and” are separate entries in the source; they are usually repeats but may differ in a detail not shown here. Equal values may be shown once.
# System: 171881-019-R-J1-PDC complex spheroid viability
# Experiment: Anticancer human tumor 171881-019-R-J1-PDC patient-derived invasive breast carcinoma cell line growth inhibition
# Details: for viability, T/C: stronger effect = lower value
# In short: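 Drug combinations with the LSD1 inhibitor iadademstat tested on tumor cells co-cultured as spheroids with endothelial cells and mesenchymal stem cells. Concentrations descended in half-log increments from clinical Cmax or 10 microM.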
# [1] = curve of first compound, second compound 0.1 µM
# [2] = curve of first compound, second compound 0.316 µM
# [3] = curve of first compound, second compound 1 µM
# [4] = curve of first compound, second compound 3.16 µM
# [5] = curve of first compound, second compound 10 µM
# [6] = second compound 0.1 µM, first compound 0.0316 µM
# [7] = second compound 0.1 µM, first compound 0.1 µM
# [8] = second compound 0.1 µM, first compound 0.316 µM
# [9] = second compound 0.1 µM, first compound 1 µM
# [10] = second compound 0.1 µM, first compound 3.16 µM
# [11] = second compound 0.1 µM, first compound 10 µM
# [12] = second compound 0.316 µM, first compound 0.0316 µM
# [13] = second compound 0.316 µM, first compound 0.1 µM
# [14] = second compound 0.316 µM, first compound 0.316 µM
# [15] = second compound 0.316 µM, first compound 1 µM
# [16] = second compound 0.316 µM, first compound 3.16 µM
# [17] = second compound 0.316 µM, first compound 10 µM
# [18] = second compound 1 µM, first compound 0.0316 µM
# [19] = second compound 1 µM, first compound 0.1 µM
# [20] = second compound 1 µM, first compound 0.316 µM
# [21] = second compound 1 µM, first compound 1 µM
# [22] = second compound 1 µM, first compound 3.16 µM
# [23] = second compound 1 µM, first compound 10 µM
# [24] = second compound 3.16 µM, first compound 0.0316 µM
# [25] = second compound 3.16 µM, first compound 0.1 µM
# [26] = second compound 3.16 µM, first compound 0.316 µM
# [27] = second compound 3.16 µM, first compound 1 µM
# [28] = second compound 3.16 µM, first compound 3.16 µM
# [29] = second compound 3.16 µM, first compound 10 µM
# [30] = second compound 10 µM, first compound 0.0316 µM
# [31] = second compound 10 µM, first compound 0.1 µM
# [32] = second compound 10 µM, first compound 0.316 µM
# [33] = second compound 10 µM, first compound 1 µM
# [34] = second compound 10 µM, first compound 3.16 µM
# [35] = second compound 10 µM, first compound 10 µM
# [36] = second compound 0.1 µM, first compound 0.00949 µM
# [37] = second compound 0.1 µM, first compound 0.03 µM
# [38] = second compound 0.1 µM, first compound 0.0949 µM
# [39] = second compound 0.1 µM, first compound 0.3 µM
# [40] = second compound 0.1 µM, first compound 0.949 µM
# [41] = second compound 0.1 µM, first compound 3 µM
# [42] = second compound 0.316 µM, first compound 0.00949 µM
# [43] = second compound 0.316 µM, first compound 0.03 µM
# [44] = second compound 0.316 µM, first compound 0.0949 µM
# [45] = second compound 0.316 µM, first compound 0.3 µM
# [46] = second compound 0.316 µM, first compound 0.949 µM
# [47] = second compound 0.316 µM, first compound 3 µM
# [48] = second compound 1 µM, first compound 0.00949 µM
# [49] = second compound 1 µM, first compound 0.03 µM
# [50] = second compound 1 µM, first compound 0.0949 µM
# [51] = second compound 1 µM, first compound 0.3 µM
# [52] = second compound 1 µM, first compound 0.949 µM
# [53] = second compound 1 µM, first compound 3 µM
# [54] = second compound 3.16 µM, first compound 0.00949 µM
# [55] = second compound 3.16 µM, first compound 0.03 µM
# [56] = second compound 3.16 µM, first compound 0.0949 µM
# [57] = second compound 3.16 µM, first compound 0.3 µM
# [58] = second compound 3.16 µM, first compound 0.949 µM
# [59] = second compound 3.16 µM, first compound 3 µM
# [60] = second compound 10 µM, first compound 0.00949 µM
# [61] = second compound 10 µM, first compound 0.03 µM
# [62] = second compound 10 µM, first compound 0.0949 µM
# [63] = second compound 10 µM, first compound 0.3 µM
# [64] = second compound 10 µM, first compound 0.949 µM
# [65] = second compound 10 µM, first compound 3 µM
# 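Further: spheroids exposed to agents for 7 days after 3 days growth.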
compound,measurement,setting,value
COc1ccc([C@@H](O)c2cc(-c3ncnc4cc(N5CCOCC5)ccc34)c(F)cc2Cl)nn1 + NC1CCC(NC2CC2c2ccccc2)CC1,IC50,[1],1210 nM
same,IC50,[2],1150 nM
same,IC50,[3],1060 nM
same,IC50,[4],1040 nM
same,IC50,[5],957 nM
same,"viability, T/C",[6],94.6%
same,"viability, T/C",[7],107%
same,"viability, T/C",[8],106%
same,"viability, T/C",[9],58.3%
same,"viability, T/C",[10],11.3%
same,"viability, T/C",[11],6.63%
same,"viability, T/C",[12],94.8%
same,"viability, T/C",[13],104%
same,"viability, T/C",[14],112%
same,"viability, T/C",[15],55.7%
same,"viability, T/C",[16],10.6%
same,"viability, T/C",[17],5.9%
same,"viability, T/C",[18],86.7%
same,"viability, T/C",[19],101%
same,"viability, T/C",[20],109%
same,"viability, T/C",[21],52.3%
same,"viability, T/C",[22],10.4%
same,"viability, T/C",[23],5.85%
same,"viability, T/C",[24],99.8%
same,"viability, T/C",[25],93.6%
same,"viability, T/C",[26],107%
same,"viability, T/C",[27],51.3%
same,"viability, T/C",[28],9.78%
same,"viability, T/C",[29],5.03%
same,"viability, T/C",[30],103%
same,"viability, T/C",[31],115%
same,"viability, T/C",[32],108%
same,"viability, T/C",[33],47.6%
same,"viability, T/C",[34],7.96%
same,"viability, T/C",[35],3.23%
NS(=O)(=O)OCC1CC(n2ccc3c(NC4CCc5ccccc54)ncnc32)CC1O (configuration not stated) + NC1CCC(NC2CC2c2ccccc2)CC1,IC50,[1],41.9 nM
same,IC50,[2],42.7 nM
same,IC50,[3],31.1 nM
same,IC50,[4],32.7 nM
same,IC50,[5],39 nM
same,"viability, T/C",[36],109%
same,"viability, T/C",[37],58.5%
same,"viability, T/C",[38],29.3%
same,"viability, T/C",[39],23.5%
same,"viability, T/C",[40],27.9%
same,"viability, T/C",[41],23.8%
same,"viability, T/C",[42],110%
same,"viability, T/C",[43],58.5%
same,"viability, T/C",[44],30.5%
same,"viability, T/C",[45],27.9%
same,"viability, T/C",[46],27.3%
same,"viability, T/C",[47],21.7%
same,"viability, T/C",[48],103%
same,"viability, T/C",[49],50.7%
same,"viability, T/C",[50],23.8%
same,"viability, T/C",[51],23.3%
same,"viability, T/C",[52],27.7%
same,"viability, T/C",[53],20.5%
same,"viability, T/C",[54],109%
same,"viability, T/C",[55],51.2%
same,"viability, T/C",[56],31.7%
same,"viability, T/C",[57],22.8%
same,"viability, T/C",[58],25.1%
same,"viability, T/C",[59],19.2%
same,"viability, T/C",[60],94.6%
same,"viability, T/C",[61],54.8%
same,"viability, T/C",[62],33.1%
same,"viability, T/C",[63],26.1%
same,"viability, T/C",[64],21.1%
same,"viability, T/C",[65],16.9%
CCN(c1cc(-c2ccc(CN3CCOCC3)cc2)cc(C(=O)NCc2c(C)cc(C)[nH]c2=O)c1C)C1CCOCC1 + NC1CCC(NC2CC2c2ccccc2)CC1,IC50,[1],2670 nM
same,IC50,[2],2850 nM
same,IC50,[3],2680 nM
same,IC50,[4],2730 nM
same,IC50,[5],2880 nM
same,"viability, T/C",[36],76.3%
same,"viability, T/C",[37],85%
same,"viability, T/C",[38],81.3%
same,"viability, T/C",[39],101%
same,"viability, T/C",[40],74.1%
same,"viability, T/C",[41],47.3%
same,"viability, T/C",[42],84.7%
same,"viability, T/C",[43],78.2%
same,"viability, T/C",[44],72.6%
same,"viability, T/C",[45],94.3%
same,"viability, T/C",[46],76.6%
same,"viability, T/C",[47],48.8%
same,"viability, T/C",[48],69.2%
same,"viability, T/C",[49],77.3%
same,"viability, T/C",[50],73.6%
same,"viability, T/C",[51],88.7%
same,"viability, T/C",[52],79.9%
same,"viability, T/C",[53],47%
same,"viability, T/C",[54],80.6%
same,"viability, T/C",[55],81.7%
same,"viability, T/C",[56],84.9%
same,"viability, T/C",[57],81.8%
same,"viability, T/C",[58],70.3%
same,"viability, T/C",[59],48.3%
same,"viability, T/C",[60],80.4%
same,"viability, T/C",[61],75.1%
same,"viability, T/C",[62],76.5%
same,"viability, T/C",[63],90.7%
same,"viability, T/C",[64],77.9%
same,"viability, T/C",[65],49%
Cn1ncnc1C1c2n[nH]c(=O)c3cc(F)cc(c23)NC1c1ccc(F)cc1 (configuration not stated),"viability, T/C",compound 0.000316 µM,92.8% and 99.4%
same,"viability, T/C",compound 0.001 µM,103% and 104%
same,"viability, T/C",compound 0.00316 µM,88% and 103%
same,"viability, T/C",compound 0.01 µM,102% and 99%
same,"viability, T/C",compound 0.0316 µM,82.2% and 97.7%
same,"viability, T/C",compound 0.1 µM,97.2% and 98.6%
same,IC50,curve of compound,> 100 nM
CC1(C)CCC(CN2CCN(c3ccc(C(=O)NS(=O)(=O)c4ccc(NCC5CCOCC5)c([N+](=O)[O-])c4)c(Oc4cnc5[nH]ccc5c4)c3)CC2)=C(c2ccc(Cl)cc2)C1 + NC1CCC(NC2CC2c2ccccc2)CC1,IC50,[1],2210 nM
same,IC50,[2],2300 nM
same,IC50,[3],2110 nM
same,IC50,[4],1720 nM
same,IC50,[5],2010 nM
same,"viability, T/C",[6],71.9%
same,"viability, T/C",[7],92.7%
same,"viability, T/C",[8],68.4%
same,"viability, T/C",[9],67.2%
same,"viability, T/C",[10],42.7%
same,"viability, T/C",[11],2.57%
same,"viability, T/C",[12],79.3%
same,"viability, T/C",[13],83.8%
same,"viability, T/C",[14],68.4%
same,"viability, T/C",[15],66.9%
same,"viability, T/C",[16],44.4%
same,"viability, T/C",[17],2.71%
same,"viability, T/C",[18],88.7%
same,"viability, T/C",[19],89.3%
same,"viability, T/C",[20],73.8%
same,"viability, T/C",[21],74.3%
same,"viability, T/C",[22],37.9%
same,"viability, T/C",[23],7.6%
same,"viability, T/C",[24],79.6%
same,"viability, T/C",[25],74.9%
same,"viability, T/C",[26],78.7%
same,"viability, T/C",[27],61.4%
same,"viability, T/C",[28],35.7%
same,"viability, T/C",[29],3.1%
same,"viability, T/C",[30],91.3%
same,"viability, T/C",[31],95.5%
same,"viability, T/C",[32],76%
same,"viability, T/C",[33],67.5%
same,"viability, T/C",[34],39.5%
same,"viability, T/C",[35],2.78%

# — PubChem BioAssay AID1918932 (Molecular Pharmacology Branch, DTP, NCI, 2023)
